Data on 19 compounds can be found in patent publication US20230277534A1 (Plexxikon Inc., priority 2011, published 2023).

For assay [1], the system named is COLO205 colon adenocarcinoma cells (B-Raf V600E mutation). The assay is described as follows: COLO205 cell growth inhibition (ATPlite). Format: cell-based. The conditions noted are these: Homo sapiens, COLO 205, 72 h, 3 days. In outline: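 Cells treated for 3 days at 37 °C, 5% CO2 with an 8-point 1:3 dilution series, top final concentration 10 μM, DMSO control. ATPlite luminescence used as a measure of cell number; IC50 from reading versus concentration.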
In general terms: In ATP-based viability assays light output follows the ATP content of the culture.

The target of assay [2] is B-Raf V600E (Homo sapiens (Human), UniProt P15056, V600E). The assay is described as follows: B-Raf V600E kinase biochemical activity assay (AlphaScreen, biotin-MEK1 substrate). The conditions noted are these: 100 μM ATP. In outline: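 B-Raf V600E (0.1 ng) phosphorylated 100 nM biotin-MEK1 with 100 μM ATP (final) in HEPES pH 7.0 with Mg2+/Mn2+ for 45 min at room temperature. Compounds were tested over an 8-point serial dilution. Phospho-MEK1/2 was detected by AlphaScreen after 3 h with beads, and IC50 came from signal versus concentration.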
Chain of B-Raf V600E (P15056 whole entry V600E): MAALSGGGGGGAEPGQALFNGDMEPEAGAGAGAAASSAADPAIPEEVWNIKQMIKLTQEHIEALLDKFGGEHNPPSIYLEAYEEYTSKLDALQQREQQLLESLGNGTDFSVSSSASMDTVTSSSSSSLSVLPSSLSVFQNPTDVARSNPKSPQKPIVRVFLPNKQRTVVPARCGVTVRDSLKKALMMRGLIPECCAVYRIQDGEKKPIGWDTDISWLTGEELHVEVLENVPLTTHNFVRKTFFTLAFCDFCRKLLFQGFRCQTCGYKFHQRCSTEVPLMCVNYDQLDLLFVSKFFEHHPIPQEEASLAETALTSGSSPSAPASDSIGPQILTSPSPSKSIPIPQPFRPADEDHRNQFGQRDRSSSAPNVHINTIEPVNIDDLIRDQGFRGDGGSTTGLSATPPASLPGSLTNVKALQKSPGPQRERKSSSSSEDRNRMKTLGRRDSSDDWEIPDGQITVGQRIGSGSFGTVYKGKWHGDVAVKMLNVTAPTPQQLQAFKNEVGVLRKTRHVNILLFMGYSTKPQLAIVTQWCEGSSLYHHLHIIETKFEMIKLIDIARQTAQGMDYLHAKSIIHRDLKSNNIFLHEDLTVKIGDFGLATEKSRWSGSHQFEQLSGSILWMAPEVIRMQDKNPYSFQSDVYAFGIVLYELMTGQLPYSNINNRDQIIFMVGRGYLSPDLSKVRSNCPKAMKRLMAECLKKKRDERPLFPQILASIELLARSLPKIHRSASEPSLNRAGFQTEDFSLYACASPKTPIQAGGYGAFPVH

For the compound `O=C(c1cccc(NS(=O)(=O)N2CCCC2)c1F)c1c[nH]c2ncc(-c3cnc(N4CCOCC4)nc3)cc12` [Compound P-0235, N-[2-fluoro-3-[5-(2-morpholinopyrimidin-5-yl)-1H-pyrrolo[2,3-b]pyridine-3-carbonyl]phenyl]pyrrolidine-1-sulfonamide], the results for the IC50 in assay [1] and in assay [2] were below 1 µM and below 0.1 µM, respectively.

Regarding `CCC(C)S(=O)(=O)Nc1cccc(C(=O)c2c[nH]c3ncc(-c4cnc(N5CCOCC5)nc4)cc23)c1F` (centres unmarked) [Compound P-0236, N-[2-fluoro-3-[5-(2-morpholinopyrimidin-5-yl)-1H-pyrrolo[2,3-b]pyridine-3-carbonyl]phenyl]butane-2-sulfonamide], the values for the IC50 in assay [1] and in assay [2] were below 1 µM and below 0.1 µM, respectively.

`CN(C)S(=O)(=O)Nc1ccc(F)c(C(=O)c2c[nH]c3ncc(-c4cnc(C5CC5)nc4)cc23)c1F` [Compound P-0238, 5-(2-cyclopropylpyrimidin-5-yl)-3-[3-(dimethylsulfamoylamino)-2,6-difluoro-benzoyl]-1H-pyrrolo[2,3-b]pyridine]: the figures for the IC50 in assay [1] and in assay [2] were below 1 µM and below 0.1 µM, respectively.

Regarding `CCN(C)S(=O)(=O)Nc1ccc(F)c(C(=O)c2c[nH]c3ncc(-c4cnc(C5CC5)nc4)cc23)c1F` [Compound P-0240, 5-(2-cyclopropylpyrimidin-5-yl)-3-[3-[[ethyl(methyl)sulfamoyl]amino]-2,6-difluoro-benzoyl]-1H-pyrrolo[2,3-b]pyridine], the half-inhibitory concentration (IC50) (as a rule, the concentration that inhibits the measured activity by half) is below 1 µM in assay [1] and below 0.1 µM in assay [2].

Consider `O=C(c1c(F)ccc(NS(=O)(=O)N2CCCC2)c1F)c1c[nH]c2ncc(-c3cnc(C4CC4)nc3)cc12` [Compound P-0241, N-[3-[5-(2-cyclopropylpyrimidin-5-yl)-1H-pyrrolo[2,3-b]pyridine-3-carbonyl]-2,4-difluoro-phenyl]pyrrolidine-1-sulfonamide], for which the IC50 was below 1 µM in assay [1] and below 0.1 µM in assay [2].

For the compound `CCCNS(=O)(=O)Nc1cccc(C(=O)c2c[nH]c3ncc(-c4cnn(C)c4)cc23)c1F` [Compound P-0242, [2-fluoro-3-(propylsulfamoylamino)phenyl]-[5-(1-methylpyrazol-4-yl)-1H-pyrrolo[2,3-b]pyridin-3-yl]methanone], the half-inhibitory concentration (IC50) in assay [1] is above 1 µM; in assay [2] it was below 0.1 µM.

As to `O=C(c1cccc(NS(=O)(=O)N2CCCC2)c1F)c1c[nH]c2ncc(-c3ccc(C4(C(=O)O)CC4)cc3)cc12` [Compound P-0243, 1-[4-[3-[2-fluoro-3-(pyrrolidin-1-ylsulfonylamino)benzoyl]-1H-pyrrolo[2,3-b]pyridin-5-yl]phenyl]cyclopropanecarboxylic acid], the results for the half-maximal inhibitory concentration (IC50) in assay [1] and in assay [2] were above 1 µM and below 0.1 µM, respectively.

For the compound `CC1(C)CCN(S(=O)(=O)Nc2cccc(C(=O)c3c[nH]c4ncc(-c5cnc(C6CC6)nc5)cc34)c2F)C1` [Compound P-0246, N-[3-[5-(2-cyclopropylpyrimidin-5-yl)-1H-pyrrolo[2,3-b]pyridine-3-carbonyl]-2-fluoro-phenyl]-3,3-dimethyl-pyrrolidine-1-sulfonamide], the IC50 in assay [1] was above 1 µM; in assay [2] it was below 0.1 µM.

On to `CC1CCN(S(=O)(=O)Nc2cccc(C(=O)c3c[nH]c4ncc(-c5cnc(C6CC6)nc5)cc34)c2F)C1` (centres unmarked) [Compound P-0247, N-[3-[5-(2-cyclopropylpyrimidin-5-yl)-1H-pyrrolo[2,3-b]pyridine-3-carbonyl]-2-fluoro-phenyl]-3-methyl-pyrrolidine-1-sulfonamide], for which the half-inhibitory concentration (IC50) in assay [1] is below 1 µM; in assay [2], below 0.1 µM.

Turning to `CN(C1CC1)S(=O)(=O)Nc1cccc(C(=O)c2c[nH]c3ncc(-c4cnc(C5CC5)nc4)cc23)c1F` [Compound P-0249, 3-[3-[[cyclopropyl(methyl)sulfamoyl]amino]-2-fluoro-benzoyl]-5-(2-cyclopropylpyrimidin-5-yl)-1H-pyrrolo[2,3-b]pyridine], the 50% inhibitory concentration (IC50) was below 1 µM in assay [1] and below 0.1 µM in assay [2].

`CCCNS(=O)(=O)Nc1cccc(C(=O)c2c[nH]c3ncc(-c4cnc(C5CC5)nc4)cc23)c1F` [Compound P-0251, [5-(2-cyclopropylpyrimidin-5-yl)-1H-pyrrolo[2,3-b]pyridin-3-yl]-[2-fluoro-3-(propylsulfamoylamino)phenyl]methanone]: the concentration for half-maximal inhibition (IC50) in assay [1] is above 1 µM; in assay [2], below 0.1 µM.

In the case of `CN(C1CC1)S(=O)(=O)Nc1ccc(F)c(C(=O)c2c[nH]c3ncc(-c4cnc(C5CC5)nc4)cc23)c1F` [Compound P-0252, 3-[3-[[cyclopropyl(methyl)sulfamoyl]amino]-2,6-difluoro-benzoyl]-5-(2-cyclopropylpyrimidin-5-yl)-1H-pyrrolo[2,3-b]pyridine], the figures for the half-maximal inhibitory concentration (IC50) in assay [1] and in assay [2] were below 1 µM and below 0.1 µM, respectively.

Consider `NC(=O)C1(c2ccc(-c3cnc4[nH]cc(C(=O)c5cccc(NS(=O)(=O)N6CCCC6)c5F)c4c3)cc2)CC1` [Compound P-0253, 1-[4-[3-[2-fluoro-3-(pyrrolidin-1-ylsulfonylamino)benzoyl]-1H-pyrrolo[2,3-b]pyridin-5-yl]phenyl]cyclopropanecarboxamide], for which the 50% inhibitory concentration (IC50) was above 1 µM in assay [1] and below 0.1 µM in assay [2].

With `CCOc1ncc(-c2cnc3[nH]cc(C(=O)c4c(F)ccc(NS(=O)(=O)N(C)CC)c4F)c3c2)cn1` [Compound P-0256, 5-(2-ethoxypyrimidin-5-yl)-3-[3-[[ethyl(methyl)sulfamoyl]amino]-2,6-difluoro-benzoyl]-1H-pyrrolo[2,3-b]pyridine], the IC50 in assay [1] was below 1 µM; in assay [2], below 0.1 µM.

As to `CCN(C)S(=O)(=O)Nc1ccc(F)c(C(=O)c2c[nH]c3ncc(-c4cnc(N5CCOCC5)nc4)cc23)c1F` [Compound P-0258, 4-[5-[3-[3-[[ethyl(methyl)sulfamoyl]amino]-2,6-difluoro-benzoyl]-1H-pyrrolo[2,3-b]pyridin-5-yl]pyrimidin-2-yl]morpholine], the figures for the concentration for half-maximal inhibition (IC50) in assay [1] and in assay [2] were below 1 µM and below 0.1 µM, respectively.

For the compound `CCN(C)S(=O)(=O)Nc1ccc(F)c(C(=O)c2c[nH]c3ncc(-c4cccc(N5CCOCC5)c4)cc23)c1F` [Compound P-0259, 4-[3-[3-[3-[[ethyl(methyl)sulfamoyl]amino]-2,6-difluoro-benzoyl]-1H-pyrrolo[2,3-b]pyridin-5-yl]phenyl]morpholine], the concentration for half-maximal inhibition (IC50) was below 1 µM in assay [1] and below 0.1 µM in assay [2].

Turning to `CN1CCN(c2ncc(-c3cnc4[nH]cc(C(=O)c5c(F)ccc(NS(=O)(=O)N6CCCC6)c5F)c4c3)cn2)CC1` [Compound P-0260, N-[2,4-difluoro-3-[5-[2-(4-methylpiperazin-1-yl)pyrimidin-5-yl]-1H-pyrrolo[2,3-b]pyridine-3-carbonyl]phenyl]pyrrolidine-1-sulfonamide], the IC50 in assay [1] was below 1 µM; in assay [2], below 0.1 µM.

For the compound `O=C(c1c(F)ccc(NS(=O)(=O)N2CCCC2)c1F)c1c[nH]c2ncc(-c3cnc(N4CCNCC4)nc3)cc12` [Compound P-0261, N-[2,4-difluoro-3-[5-(2-piperazin-1-ylpyrimidin-5-yl)-1H-pyrrolo[2,3-b]pyridine-3-carbonyl]phenyl]pyrrolidine-1-sulfonamide], the figures for the IC50 in assay [1] and in assay [2] were below 1 µM and below 0.1 µM, respectively.

`O=C(c1c(F)ccc(NS(=O)(=O)N2CCCC2)c1F)c1c[nH]c2ncc(-c3cnc(N4CCC(O)CC4)nc3)cc12` [Compound P-0262, N-[2,4-difluoro-3-[5-[2-(4-hydroxy-1-piperidyl)pyrimidin-5-yl]-1H-pyrrolo[2,3-b]pyridine-3-carbonyl]phenyl]pyrrolidine-1-sulfonamide]: the concentration for half-maximal inhibition (IC50) in assay [1] was below 1 µM; in assay [2] it was below 0.1 µM.
